Consider 26 molecules from patent publication US8735414B2 (priority 2009, dated 2014).

For data set [1], the system named is bicistronic HCV replicon (replicon RNA, GenBank Accession No. AJ242654). In words: HCV Replicon Assay. It is filed as cell-based. The conditions noted are these: Hepatitis C virus, 72 h, read-out: Replicon IC50.

Broadly, the melting point is the temperature of the solid-liquid transition. In general, IC50 refers to the concentration needed to halve the response being measured.

Where only a bound is given, the exact number is not on record here.

With `CC(C)NS(=O)(=O)c1cnc(-c2c(C#N)c3ccc(C(C)C)cc3n2C2CCC2)nc1` [compound 185, 2-[3-cyano-1-cyclobutyl-6-(propan-2-yl)-1H-indol-2-yl]-N-(propan-2-yl)pyrimidine-5-sulfonamide], the melting point lay within 220 to 222 °C. Also, the IC50 in data set [1] is below 500 nM.

Molecule `Cc1cc2c(cc1Br)c(C#N)c(-c1ccc(S(=O)(=O)N[C@@H](C)C(F)(F)F)cn1)n2C1CCCC1` [compound 675, 6-(5-bromo-3-cyano-1-cyclopentyl-6-methyl-1H-indol-2-yl)-N-[(2S)-1,1,1-trifluoropropan-2-yl]pyridine-3-sulfonamide] registered a melting point of 204 to 204.5 °C. Also, in data set [1], the half-inhibitory concentration (IC50) was below 500 nM.

The molecule `C[C@H](C1CC1)n1c(-c2ccc(NS(=O)(=O)C(C)(C)C)nc2)c(C(N)=O)c2cc(F)c(OC(F)F)cc21` [compound 1085, 2-{6-[(tert-butylsulfonyl)amino]pyridin-3-yl}-1-[(1R)-1-cyclopropylethyl]-6-(difluoromethoxy)-5-fluoro-1H-indole-3-carboxamide] displayed a melting point of 228 to 230 °C. Moreover, the half-inhibitory concentration (IC50) in data set [1] is below 500 nM.

As to `CCCS(=O)(=O)Nc1ccc(-c2c(C#N)c3ccc(Oc4ncccc4C#N)cc3n2C2CCC2)nc1` [compound 272, N-(6-{3-cyano-6-[(3-cyanopyridin-2-yl)oxy]-1-cyclobutyl-1H-indol-2-yl}pyridin-3-yl)propane-1-sulfonamide], the melting point was in the range of 199 to 201 °C. In addition, the half-maximal inhibitory concentration (IC50) in data set [1] was 500 to 2000 nM.

`CCc1cc2c(cc1F)c(C#N)c(-c1ccc(S(=O)(=O)N(c3ncccn3)C3(C)CC3)cn1)n2-c1ncccn1` [compound 861, 6-[3-cyano-6-ethyl-5-fluoro-1-(pyrimidin-2-yl)-1H-indol-2-yl]-N-(1-methylcyclopropyl)-N-(pyrimidin-2-yl)pyridine-3-sulfonamide] yielded a melting point of 193 to 200 °C. Further, the IC50 in data set [1] was 2000 to 5000 nM.

The molecule `C[C@H](NS(=O)(=O)c1ccc(-c2c(C#N)c3cc(F)c(OC(F)F)cc3n2CC2CC2)nc1)C(F)(F)F` [compound 787, 6-[3-cyano-1-(cyclopropylmethyl)-6-(difluoromethoxy)-5-fluoro-1H-indol-2-yl]-N-[(2S)-1,1,1-trifluoropropan-2-yl]pyridine-3-sulfonamide] returned a melting point of 149 to 153 °C. Moreover, the IC50 in data set [1] is below 500 nM.

`CCc1cc2c(cc1F)c(C#N)c(-c1ccc(S(=O)(=O)N[C@@H](C)C(F)(F)F)cn1)n2-c1cc(C)ccn1` [compound 932, 6-[3-cyano-6-ethyl-5-fluoro-1-(4-methylpyridin-2-yl)-1H-indol-2-yl]-N-[(2S)-1,1,1-trifluoropropan-2-yl]pyridine-3-sulfonamide] displayed a melting point of 188 to 190 °C. The half-maximal inhibitory concentration (IC50) in data set [1] was below 500 nM.

The molecule `CC(C)n1c(-c2ncc(S(=O)(=O)N[C@@H](C)C(F)(F)F)cn2)c(C#N)c2ccc(Cl)cc21` [compound 418, 2-[6-chloro-3-cyano-1-(propan-2-yl)-1H-indol-2-yl]-N-[(2S)-1,1,1-trifluoropropan-2-yl]pyrimidine-5-sulfonamide] returned a melting point of 241 to 248 °C. Further, the IC50 in data set [1] was in the range of 500 to 2000 nM.

With `N#Cc1c(-c2ncc(S(=O)(=O)NC(CF)CF)cn2)n(CC2CC2)c2ccc(Cl)cc12` [compound 221, 2-[5-chloro-3-cyano-1-(cyclopropylmethyl)-1H-indol-2-yl]-N-(1,3-difluoropropan-2-yl)pyrimidine-5-sulfonamide], the melting point was 245 to 250 °C. Moreover, the IC50 in data set [1] was below 500 nM.

Molecule `CC(C)NS(=O)(=O)c1cnc(-c2c(C#N)c3ccc(CC(F)F)cc3n2C2CCCC2)nc1` [compound 598, 2-[3-cyano-1-cyclopentyl-6-(2,2-difluoroethyl)-1H-indol-2-yl]-N-(propan-2-yl)pyrimidine-5-sulfonamide] had a melting point of 204 to 218 °C. In data set [1], the IC50 is below 500 nM.

As for `CCc1ccc2c(C#N)c(-c3ccc(S(=O)(=O)NC(C)(C)C(F)(F)F)cn3)n(C3CCC3)c2c1` [compound 481, 6-(3-cyano-1-cyclobutyl-6-ethyl-1H-indol-2-yl)-N-(1,1,1-trifluoro-2-methylpropan-2-yl)pyridine-3-sulfonamide], the melting point lay within 160 to 165 °C. Moreover, the IC50 in data set [1] was below 500 nM.

As to `C[C@H](NS(=O)(=O)c1ccc(-c2c(C#N)c3c(F)cc(OC(F)F)cc3n2C2CCC2)nc1)C(F)(F)F` [compound 797, 6-[3-cyano-1-cyclobutyl-6-(difluoromethoxy)-4-fluoro-1H-indol-2-yl]-N-[(2S)-1,1,1-trifluoropropan-2-yl]pyridine-3-sulfonamide], the melting point was in the range of 210 to 212 °C. For the same molecule, the IC50 in data set [1] is below 500 nM.

The molecule `CC(C)(C)S(=O)(=O)Nc1ccc(-c2c(C(N)=O)c3c(F)cc(C4CC4)cc3n2-c2ccc(F)cc2)cn1` [compound 1105, 2-{6-[(tert-butylsulfonyl)amino]pyridin-3-yl}-6-cyclopropyl-4-fluoro-1-(4-fluorophenyl)-1H-indole-3-carboxamide] gave a melting point of 290 to 295 °C. In addition, the IC50 in data set [1] is below 500 nM.

On to `CC(NS(=O)(=O)c1cnc(-c2c(C#N)c3ccc(OC(F)F)cc3n2C2CCC2)nc1)C(F)(F)F` (stereo not shown) [compound 128, 2-[3-cyano-1-cyclobutyl-6-(difluoromethoxy)-1H-indol-2-yl]-N-(1,1,1-trifluoropropan-2-yl)pyrimidine-5-sulfonamide], for which the melting point is 227 to 229 °C. Further, the IC50 in data set [1] is below 500 nM.

Molecule `CC(C)(C)S(=O)(=O)Nc1ccc(-c2c(C#N)c3ccc(OC(F)F)cc3n2C2CCC2)cn1` [compound 295, N-{5-[3-cyano-1-cyclobutyl-6-(difluoromethoxy)-1H-indol-2-yl]pyridin-2-yl}-2-methylpropane-2-sulfonamide] showed a melting point of 239 to 240 °C. Also, the IC50 in data set [1] was in the range of 2000 to 5000 nM.

With `CC(C)(NS(=O)(=O)c1ccc(-c2c(C(N)=O)c3cc(F)c(OC(F)F)cc3n2C2CCC2)nc1)C(F)(F)F` [compound 729, 1-cyclobutyl-6-(difluoromethoxy)-5-fluoro-2-{5-[(1,1,1-trifluoro-2-methylpropan-2-yl)sulfamoyl]pyridin-2-yl}-1H-indole-3-carboxamide], the melting point lay within 207 to 209 °C. In addition, in data set [1], the IC50 is below 500 nM.

Regarding `Cc1cc2c(cc1F)c(C#N)c(-c1ccc(S(=O)(=O)N[C@H](C)C(F)(F)F)cn1)n2-c1ccccn1` [compound 698, 6-[3-cyano-5-fluoro-6-methyl-1-(pyridin-2-yl)-1H-indol-2-yl]-N-[(2R)-1,1,1-trifluoropropan-2-yl]pyridine-3-sulfonamide], the melting point was 170 to 174 °C. For the same molecule, the half-inhibitory concentration (IC50) in data set [1] was below 500 nM.

With `N#Cc1ccc2c(C#N)c(-c3ccc(S(=O)(=O)NC(CF)CF)cn3)n(C3CCC3)c2c1` [compound 465, 6-(3,6-dicyano-1-cyclobutyl-1H-indol-2-yl)-N-(1,3-difluoropropan-2-yl)pyridine-3-sulfonamide], the melting point was in the range of 203 to 204 °C. Further, in data set [1], the IC50 is below 500 nM.

The molecule `C[C@H](NS(=O)(=O)c1cnc(-c2c(C#N)c3ccc(CC(F)F)cc3n2C2CCCC2)nc1)C1CC1` [compound 597, 2-[3-cyano-1-cyclopentyl-6-(2,2-difluoroethyl)-1H-indol-2-yl]-N-[(1S)-1-cyclopropylethyl]pyrimidine-5-sulfonamide] displayed a melting point of 181 to 189 °C. In addition, in data set [1], the half-inhibitory concentration (IC50) is below 500 nM.

As to `Cc1cc2c(cc1F)c(C#N)c(-c1ncc(S(=O)(=O)N[C@@H](C)C(F)(F)F)cc1C)n2C1CCCC1` [compound 837, 6-(3-cyano-1-cyclopentyl-5-fluoro-6-methyl-1H-indol-2-yl)-5-methyl-N-[(2S)-1,1,1-trifluoropropan-2-yl]pyridine-3-sulfonamide], the melting point fell in the range of 237 to 242 °C. For the same molecule, in data set [1], the IC50 was below 500 nM.

`CCNC(=O)c1c(-c2ccc(S(=O)(=O)N[C@@H](C)C(F)(F)F)cn2)n(C2CCCC2)c2cc(C)c(F)cc12` [compound 762, 1-cyclopentyl-N-ethyl-5-fluoro-6-methyl-2-(5-{[(2S)-1,1,1-trifluoropropan-2-yl]sulfamoyl}pyridin-2-yl)-1H-indole-3-carboxamide]: the melting point lay within 160 to 162 °C. The half-maximal inhibitory concentration (IC50) in data set [1] was below 500 nM.

`CC(C)(C)NS(=O)(=O)c1ccc(-c2c(C#N)c3cc(OC(F)F)ccc3n2C2CCC2)nc1` [compound 20, N-tert-butyl-6-[3-cyano-1-cyclobutyl-5-(difluoromethoxy)-1H-indol-2-yl]pyridine-3-sulfonamide]: the melting point is 167 to 170 °C. Moreover, in data set [1], the IC50 was in the range of 500 to 2000 nM.

For `Cc1cc2c(cc1F)c(C(N)=O)c(-c1ccc(S(=O)(=O)N[C@@H](C)C(F)(F)F)cn1)n2-c1ccc(F)cn1` [compound 876, 5-fluoro-1-(5-fluoropyridin-2-yl)-6-methyl-2-(5-{[(2S)-1,1,1-trifluoropropan-2-yl]sulfamoyl}pyridin-2-yl)-1H-indole-3-carboxamide], the melting point was in the range of 224 to 228 °C. For the same molecule, the IC50 in data set [1] is below 500 nM.

On to `Cc1cc(-c2c(C#N)c3cc(F)ccc3n2-c2ncccn2)ncc1S(=O)(=O)N[C@@H](C)C(F)(F)F` [compound 848, 6-[3-cyano-5-fluoro-1-(pyrimidin-2-yl)-1H-indol-2-yl]-4-methyl-N-[(2S)-1,1,1-trifluoropropan-2-yl]pyridine-3-sulfonamide], for which the melting point lay within 199 to 204 °C. Moreover, the IC50 in data set [1] was below 500 nM.

Turning to `CC(C)NS(=O)(=O)c1ccc(-c2c(C#N)c3cccc(F)c3n2C2CCCC2)nc1` [compound 66, 6-(3-cyano-1-cyclopentyl-7-fluoro-1H-indol-2-yl)-N-(propan-2-yl)pyridine-3-sulfonamide], the melting point was in the range of 152 to 153 °C. The IC50 in data set [1] is below 500 nM.

The molecule `Cc1cc2c(cc1F)c(C(N)=O)c(-c1ccc(S(=O)(=O)N[C@@H](C)C(F)(F)F)cn1)n2-c1ncccc1F` [compound 902, 5-fluoro-1-(3-fluoropyridin-2-yl)-6-methyl-2-(5-{[(2S)-1,1,1-trifluoropropan-2-yl]sulfamoyl}pyridin-2-yl)-1H-indole-3-carboxamide] registered a melting point of 130 to 138 °C. Moreover, in data set [1], the IC50 was in the range of 500 to 2000 nM.
